Measured values reported in patent US12352767B2, “Method of treating cognitive decline associated with neurological diseases based on a decrease in FLT4 expression or activity” (University of Virginia Patent Foundation, priority 2018, dated 2025).
“Also recorded” adds a separate entry of the source.

Columns and labels:
[1] = system: hippocampal transcriptome; assay: RNA-seq of whole hippocampus after meningeal lymphatic ablation (Table 2, Table 3); type: in vivo, mice
Protocol: After defrosting in ice, samples were mechanically dissociated in extraction buffer and RNA was isolated using the kit components according to the manufacturer's instructions (RNeasy mini kit, cat. no. 74106, Qiagen). The Illumina TruSeq Stranded Total RNA Library Prep Kit was used for cDNA library preparation from total RNA samples. Sample quality control was performed on an Agilent 4200 TapeStation Instrument, using the Agilent D1000 kit, and on the Qubit Fluorometer (Thermo Fisher Scientific). For RNA sequencing (RNA-seq), libraries were loaded on to a NextSeq 500 (Illumina) using an Illumina NextSeq High Output (150 cycle) cartridge (#FC-404-2002).
The raw sequencing reads (FASTQ files) were first chastity filtered, which removes any clusters that have a higher than expected intensity of the called base compared to other bases. The quality of the reads was then evaluated using FastQC^57, and after passing quality control (QC), the expression of the transcripts was quantified against the UCSC mm10 genome^58 using Salmon^59. These transcript abundances were then imported into R and summarized with tximport^60, and then DESeq2^61 was used to normalize the raw counts, perform exploratory analysis (e.g., principal component analysis), and to perform differential expression (DE) analysis. Before DE analysis of the meningeal LECs from adult vs old mice dataset, surrogate variable analysis^62 (SVA) was used to identify and adjust for latent sources of unwanted variation as implemented in the SVA package^63. The P-values from the DE analysis were corrected for multiple hypothesis testing with the Benjamini-Hochberg false discovery rate procedure (adj. P-value). Functional enrichment of DE genes, using gene sets from Gene Ontology (GO) and Kyoto Encyclopedia of Genes and Genomes (KEGG), was determined with Fisher's exact test as implemented in the clusterProfiler^64 Bioconductor package. Heatmaps of the DE genes and enriched gene sets were generated with the R package pheatmap^65. Normalized counts of selected transcripts were used to calculate the fold change relative to respective controls.

[2] = system: meningeal lymphatic drainage; assay: Drainage of CSF tracer (OVA-A647) into deep cervical lymph nodes; type: in vivo, mice; conditions: 7 days after Visudyne/photoconversion, 2 h after i.c.m. tracer, vs control groups
Protocol: Mice were anaesthetized by intraperitoneal (i.p.) injection of a mixed solution of ketamine (100 mg/Kg) and xylazine (10 mg/Kg) in saline. The skin of the neck was shaved and cleaned with iodine and 70% ethanol, ophthalmic solution placed on the eyes to prevent drying and the mouse's head was secured in a stereotaxic frame. After making a skin incision, the muscle layers were retracted and the cisterna magna exposed. Using a Hamilton syringe (coupled to a 33-gauge needle), the volume of the desired tracer solution was injected into the CSF-filled cisterna magna compartment. For brain CSF influx and lymphatic drainage experiments, 2 or 5 μL of Alexa Fluor® 594 or 647 conjugated OVA (Thermo Fisher Scientific), at 0.5 mg/mL in artificial CSF (#597316, Harvard Apparatus U.K.), were injected at a rate of 2.5 μL/min. After injecting, the syringe was left in place for additional 2 min to prevent back-flow of CSF.

mice [3] = assay: Contextual fear conditioning test; type: in vivo; conditions: Visudyne/photoconversion twice
Protocol: This behavioral test was performed following a published protocol^53 with modifications. In this associative learning task, mice are presented with a neutral conditioned cue stimulus that is paired with an aversive unconditioned stimulus in a particular context. The mice learn that the chamber context and the cue stimulus predict the aversive stimulus and elicit a specific behavioral response, namely freezing. Mice were brought into the testing room to acclimate for at least 30 minutes before testing. For the test, we used two Habitest® chambers (Coulbourn Instruments, Allentown, PA, USA) with stainless grid floors attached to a shock generator for foot shock delivery and dimly illuminated with a white fluorescent light bulb. The chambers were cleaned and made odor-free before starting the experiment and between each session (or each mouse). The fear conditioning test was conducted over 2 days. […] On day 2, mice were tested and scored for conditioned fear to the training context for 3 minutes (context test), but with no presentation of the cue stimulus. […] Mice behaviour was recorded by a digital video camera mounted above the conditioning chamber and freezing was manually scored by a blinded experimenter using the Etholog V2.2 software. Parameters analysed included the percentage of time freezing during the 3 minutes of the context test and the last 3 minutes of the cued test.

mice [4] = assay: Morris water maze test; type: in vivo; conditions: Visudyne/photoconversion twice, adult mice
Protocol: The Morris water maze test was performed as described before^53, but with modifications. Mice were transported to the behavior room to habituate at least 30 min before starting the test. The MWM test consisted of 4 days of acquisition, 1 day of probe trial and 2 days of reversal. In the acquisition, mice performed four trials per day, for 4 consecutive days, to find a hidden 10-cm diameter platform located 1 cm below the water surface in a pool 1 m in diameter. Tap water was made opaque with nontoxic tempera white paint and the water temperature was kept at 23±1° C. A dim light source was placed within the testing room and only distal visual cues were available above each quadrant of the swimming pool to aid in the spatial navigation and location of the submerged platform. The latency to platform, e.g., the time required by the mouse to find and climb onto the platform, was recorded for up to 60 s. Each mouse was allowed to remain on the platform for 20 s and was then moved from the maze to its home cage. […] During the acquisition, probe and reversal, data were recorded using the EthoVision automated tracking system (Noldus Information Technology). The mean latency (in s) of the four trials was calculated for each day of test. The % of time in the platform quadrant was calculated for the probe trial. […] The mean % of allocentric navigation of four trials was calculated for each day.

[5] = after meningeal lymphatic ablation (Visudyne/photoconversion) and MWM

## verteporfin [Visudyne]
[1]; [5]
  number of genes down-regulated in the hippocampus: 2138 genes
  number of genes up-regulated in the hippocampus: 1599 genes
[1]; four weeks of meningeal lymphatic ablation, Visudyne/photoconversion vs vehicle/photoconversion
  hippocampal transcriptome (RNA-seq principal component analysis) without MWM: did not induce significant changes; also recorded: did not show a differential clustering
[1]; prolonged meningeal lymphatic ablation, Visudyne/photoconversion vs vehicle/photoconversion
  hippocampal gene expression (RNA-seq) after MWM performance: significant differences in hippocampal gene expression; also recorded: differential clustering
[2]
  OVA-A647 drainage from CSF into dCLNs (area fraction): significant reduction; also recorded: significantly less amount of tracer
Mice [3]; adult mice
  CFC context test: no differences between groups
Mice [3]; vs control groups
  CFC cued test: statistically significant difference
Mice [4]
  MWM spatial learning: significant deficits in spatial learning
